Consider 1 compound from the NIST ThermoML archive (doi:10.1021/je049712l).

SMILES strings stand for the structures. ± gives the expanded uncertainty stated by the source.

For the data set the following is noted: 101.33 kPa, Liquid, Vibrating tube method.

For orientation: mass density means the mass of a sample divided by its volume. As to `CO` [methanol], the mass density runs as follows: (273 K) 800 ± 24 kg/m3; (298 K) 787 ± 24 kg/m3; (303 K) 786 ± 24 kg/m3; (313 K) 779 ± 24 kg/m3; (323 K) 768 ± 24 kg/m3.
